According to US6458781B1, “Substituted diarylalkyl amides as calcium channel antagonists” (priority 1998, dated 2002):
pIC50: −log10 of the molar value. Read-outs that look alike come from different tables or passages of the source.

Tests used:
[1] = biological target: T1, L-type calcium channels in A10 cells (Rattus norvegicus, UniProt P22002); test: L-type Ca2+ channel blocking potency in A10 cells (FLIPR); format: cell-based; conditions: read-out: FLPA10 IC50
T1 construct: which endogenously expresses L-type calcium channels; host or cells: A10 rat embryonic thoracic aorta smooth muscle cells
Description: Measurement of L-type Ca^2+ Channel Blocking Potencies of Compounds in A10 Cells
Calcium flux through voltage-sensitive calcium channels was assessed by time-resolved monitoring of the fluorescence of pre-loaded calcium-sensitive dyes using FLIPR, a fluorescent image plate reader (Molecular Devices Co.). The A10 smooth muscle cell line derived from embryonic thoracic aorta of the DBIX rat (ATCC, CRL-1476) which endogenously expresses L-type calcium channels. The growth media for A10 cells was Ham's F12/DME high glucose (Irvine Scientific, 9052), supplemented with 20% fetal bovine serum (HyClone Labs, A-1115-L), and 1% each of L-glutamine and antibiotic-antimycotic (same source as above).
Cells were grown to confluency and replated on black-sided 96-well plates (Costar, 3603) for use in FLIPR. Two days after replating, growth media was removed and cells were loaded at 37° C. with 100 μL media containing 1 μM Oregon Green 488 Bapta-1 dye (Molecular Probes, O-6807) for 1 to 3 hours. The dye-containing media was then washed away with buffer (composition in mM: 1.25 CaCl2, 1.2 MgSO4, 11 glucose, 10 HEPES, 3.0 KCl, 137.0 NaCl, pH 7.4 with Tris base) in a Denley Cellwash (Labsystems, CW018B). The residual buffer volume was adjusted to 50 μL. A 5 minute drug-pre-incubation period at 35° C. was initiated when 50 μL of drug-containing buffer was pipetted into the cell plate with the 96-well pipettor integrated in the FLIPR apparatus. Fluorescent counts were monitored at 20 second intervals for 360 seconds, beginning 60 seconds prior to the delivery of drug-containing buffer. Following drug addition, 100 μL aliquots of a high K^+, depolarizing stimulus (composition in mM: 1.25 CaCl2, 1.2 MgSO4, 11 glucose, 10 HEPES, 140.0 KCl, pH 7.4 with Tris base) were added to each well, and fluorescence was monitored at 1 second intervals for 120 seconds beginning 10 seconds prior to the stimulus addition. CCD camera exposure time was 0.4 seconds, laser excitation was at 488 nm with a power of 0.2-0.5W, and a 510 to 560 nm bandpass interference filter preceded the camera.
Data was analyzed as a summation of fluorescent counts above basal during the stimulation period (an approximation of area under the curve), after normalizing the data with a spatial uniformity correction (for variations in laser illumination and cell density) and a negative control correction (zero calcium increase defined as the fluorescence reading in the presence of saturating pharmacologic block of the respective calcium channel). Drug effects were expressed as percent inhibition of fluorescence from an average of 8 K^+-stimulated wells which were pre-treated in the drug incubation period with buffer only. In the A10 cells, the pharmacologic agent used to define zero calcium influx was nitrendipine (RBI, N-144) at a final concentration of 1.0×10^−6 M.

[2] = biological target: T2, N-type calcium channels in IMR-32 cells (Homo sapiens, UniProt Q00975); test: N-type Ca2+ channel blocking potency in IMR-32 cells using Indo-1; format: cell-based; conditions: for pIC50: IMR-32 cells; for inhibition at 1 µM / inhibition at 10 µM: IMR-32, IMR-32 cells; for inhibition at 1 µM: read-out: IMR32 % blockage at 1 μM; for inhibition at 10 µM: read-out: IMR32 % blockage at 10 μM
T2 construct: host or cells: IMR-32 cells differentiated with dibutyryl cAMP and bromodeoxyuridine
Procedure, shortened: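 Differentiated IMR-32 cells loaded with Indo-1 AM were preincubated with compound and 5 μM nitrendipine (L-type block) for 10 min at 30° C in HEPES/Tris pH 7.4 HBSS with 0.5% BSA. Cells were depolarized with KCl/CaCl2, and the 400/490 nm emission ratio rise over basal was measured. IC50 came from a four-parameter logistic fit.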

[3] = estimated from two data points, read-out: IMR32 IC50 (estimated IC50 values based on two data points)

T2 sequence (Q00975 whole entry): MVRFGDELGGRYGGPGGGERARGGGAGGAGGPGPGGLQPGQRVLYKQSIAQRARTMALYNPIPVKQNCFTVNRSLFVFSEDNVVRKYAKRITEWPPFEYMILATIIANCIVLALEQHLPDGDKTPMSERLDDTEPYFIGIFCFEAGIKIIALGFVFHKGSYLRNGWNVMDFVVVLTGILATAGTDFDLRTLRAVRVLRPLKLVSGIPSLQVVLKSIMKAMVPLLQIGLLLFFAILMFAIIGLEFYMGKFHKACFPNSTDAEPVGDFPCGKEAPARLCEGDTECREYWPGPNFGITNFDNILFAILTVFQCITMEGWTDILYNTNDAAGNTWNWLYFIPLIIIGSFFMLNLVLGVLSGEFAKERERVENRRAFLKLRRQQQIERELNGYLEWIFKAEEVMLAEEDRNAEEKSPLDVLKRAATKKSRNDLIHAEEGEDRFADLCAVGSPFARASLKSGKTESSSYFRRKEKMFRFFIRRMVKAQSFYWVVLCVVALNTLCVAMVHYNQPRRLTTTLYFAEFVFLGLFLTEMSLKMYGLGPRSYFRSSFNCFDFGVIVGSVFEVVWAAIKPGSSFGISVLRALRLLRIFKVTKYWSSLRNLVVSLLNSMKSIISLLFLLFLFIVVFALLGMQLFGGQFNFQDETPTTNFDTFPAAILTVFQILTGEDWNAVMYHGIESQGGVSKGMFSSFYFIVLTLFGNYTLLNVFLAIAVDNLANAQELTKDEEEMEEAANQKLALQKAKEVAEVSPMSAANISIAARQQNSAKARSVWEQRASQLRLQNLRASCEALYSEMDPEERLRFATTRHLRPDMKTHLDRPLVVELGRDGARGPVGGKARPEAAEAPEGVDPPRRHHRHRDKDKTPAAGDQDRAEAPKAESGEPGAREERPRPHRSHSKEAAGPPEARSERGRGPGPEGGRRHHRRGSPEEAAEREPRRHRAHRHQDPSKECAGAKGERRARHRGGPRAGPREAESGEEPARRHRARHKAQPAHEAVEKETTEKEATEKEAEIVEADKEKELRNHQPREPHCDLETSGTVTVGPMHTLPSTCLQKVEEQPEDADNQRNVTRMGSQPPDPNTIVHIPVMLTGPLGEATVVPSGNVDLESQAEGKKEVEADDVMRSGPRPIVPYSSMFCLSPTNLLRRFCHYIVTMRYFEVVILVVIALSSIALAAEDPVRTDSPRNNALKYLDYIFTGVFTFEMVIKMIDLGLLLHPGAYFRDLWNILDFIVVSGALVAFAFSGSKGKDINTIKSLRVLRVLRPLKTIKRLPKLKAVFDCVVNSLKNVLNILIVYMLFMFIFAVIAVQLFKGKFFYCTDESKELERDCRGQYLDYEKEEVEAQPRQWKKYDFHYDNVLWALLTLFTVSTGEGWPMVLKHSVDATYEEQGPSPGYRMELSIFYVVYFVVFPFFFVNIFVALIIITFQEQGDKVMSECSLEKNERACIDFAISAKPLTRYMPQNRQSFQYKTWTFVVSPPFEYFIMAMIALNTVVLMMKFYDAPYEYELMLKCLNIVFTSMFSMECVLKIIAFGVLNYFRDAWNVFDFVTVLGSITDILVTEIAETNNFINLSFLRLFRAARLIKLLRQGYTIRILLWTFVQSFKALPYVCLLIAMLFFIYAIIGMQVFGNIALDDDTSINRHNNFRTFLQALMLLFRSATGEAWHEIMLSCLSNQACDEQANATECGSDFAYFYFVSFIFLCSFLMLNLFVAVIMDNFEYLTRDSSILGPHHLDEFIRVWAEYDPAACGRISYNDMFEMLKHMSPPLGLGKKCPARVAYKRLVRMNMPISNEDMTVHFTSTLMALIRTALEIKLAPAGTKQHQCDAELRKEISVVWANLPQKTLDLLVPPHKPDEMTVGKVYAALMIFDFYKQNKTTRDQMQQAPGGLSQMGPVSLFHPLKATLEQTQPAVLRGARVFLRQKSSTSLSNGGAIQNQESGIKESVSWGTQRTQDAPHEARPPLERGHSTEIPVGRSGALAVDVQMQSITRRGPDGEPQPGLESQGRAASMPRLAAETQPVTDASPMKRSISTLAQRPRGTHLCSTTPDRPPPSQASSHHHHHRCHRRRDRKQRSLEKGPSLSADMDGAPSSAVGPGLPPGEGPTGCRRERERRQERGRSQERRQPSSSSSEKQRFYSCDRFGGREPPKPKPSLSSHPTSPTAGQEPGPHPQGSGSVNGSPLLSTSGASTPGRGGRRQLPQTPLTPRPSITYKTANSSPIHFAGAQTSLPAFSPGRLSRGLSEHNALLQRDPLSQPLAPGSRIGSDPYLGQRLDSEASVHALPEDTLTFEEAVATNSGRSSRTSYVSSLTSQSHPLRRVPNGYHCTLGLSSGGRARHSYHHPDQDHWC
T2 sequence (P54289 25-956 partner limits assumed): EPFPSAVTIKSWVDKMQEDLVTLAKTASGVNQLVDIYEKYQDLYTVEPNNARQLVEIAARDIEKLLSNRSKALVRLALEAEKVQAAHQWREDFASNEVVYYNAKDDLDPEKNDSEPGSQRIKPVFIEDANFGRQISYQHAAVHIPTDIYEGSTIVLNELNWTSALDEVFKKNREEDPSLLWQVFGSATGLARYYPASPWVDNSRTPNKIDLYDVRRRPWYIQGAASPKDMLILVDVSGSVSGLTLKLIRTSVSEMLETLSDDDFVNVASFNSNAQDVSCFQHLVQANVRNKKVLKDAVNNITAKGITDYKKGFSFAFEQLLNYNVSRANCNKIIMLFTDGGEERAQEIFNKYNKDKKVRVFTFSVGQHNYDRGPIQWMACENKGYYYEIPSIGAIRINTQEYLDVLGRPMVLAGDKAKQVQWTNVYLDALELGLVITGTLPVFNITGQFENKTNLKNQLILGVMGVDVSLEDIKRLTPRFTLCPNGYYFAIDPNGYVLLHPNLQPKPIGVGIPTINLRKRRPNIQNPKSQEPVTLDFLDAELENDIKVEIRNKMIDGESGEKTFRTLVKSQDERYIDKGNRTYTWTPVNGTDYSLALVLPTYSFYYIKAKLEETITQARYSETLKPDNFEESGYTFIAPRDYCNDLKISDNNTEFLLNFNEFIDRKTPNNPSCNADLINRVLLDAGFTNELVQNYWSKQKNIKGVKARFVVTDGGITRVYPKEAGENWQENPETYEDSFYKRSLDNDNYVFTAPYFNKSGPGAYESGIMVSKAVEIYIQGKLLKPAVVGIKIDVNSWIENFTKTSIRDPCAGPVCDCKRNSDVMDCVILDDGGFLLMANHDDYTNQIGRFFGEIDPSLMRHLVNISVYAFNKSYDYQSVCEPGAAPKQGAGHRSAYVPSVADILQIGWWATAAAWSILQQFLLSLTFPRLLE
T2 sequence (P54289 957-1103 partner limits assumed): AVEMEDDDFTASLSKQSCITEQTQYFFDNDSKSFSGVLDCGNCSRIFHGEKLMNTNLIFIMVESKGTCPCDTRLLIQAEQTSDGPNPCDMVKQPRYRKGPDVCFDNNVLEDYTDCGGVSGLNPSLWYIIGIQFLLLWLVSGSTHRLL
T2 sequence (Q02641 whole entry partner): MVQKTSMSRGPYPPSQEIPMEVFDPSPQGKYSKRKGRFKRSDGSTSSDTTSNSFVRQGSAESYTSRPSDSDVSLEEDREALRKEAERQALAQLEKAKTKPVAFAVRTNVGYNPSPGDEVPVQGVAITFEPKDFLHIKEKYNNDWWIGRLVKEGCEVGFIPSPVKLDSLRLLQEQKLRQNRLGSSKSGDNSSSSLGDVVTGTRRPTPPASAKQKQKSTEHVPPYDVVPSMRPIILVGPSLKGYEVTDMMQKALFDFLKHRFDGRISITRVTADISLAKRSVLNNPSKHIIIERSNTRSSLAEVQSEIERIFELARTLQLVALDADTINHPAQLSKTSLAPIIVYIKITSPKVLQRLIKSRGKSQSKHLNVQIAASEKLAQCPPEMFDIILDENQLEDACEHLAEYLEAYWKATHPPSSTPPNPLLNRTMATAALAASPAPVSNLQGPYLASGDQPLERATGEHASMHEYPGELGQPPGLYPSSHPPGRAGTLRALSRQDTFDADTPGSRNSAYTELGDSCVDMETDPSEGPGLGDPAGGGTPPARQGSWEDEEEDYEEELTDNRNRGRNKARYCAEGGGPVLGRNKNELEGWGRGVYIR

SMILES | pIC50 [1] | melting point [°C] | pIC50 ([2]; 5 μM nitrendipine present, read-out: IMR32 IC50) | pIC50 [2, 3] | inhibition at 1 µM [2] [%] | inhibition at 10 µM [2] [%]
O=C(CNC(=O)N1CCCCCC1)N1CCN(C(c2ccc(F)cc2)c2ccc(F)cc2)CC1 [Example 32, (S)-Azepane-1-carboxylic acid (2-{4-[bis-(4-fluoro-phenyl)-methyl]-piperazin-1-yl}-2-oxo-ethyl)-amide] | 5.74 | 66 to 86 | 6.33 |  |  | 
CC(C)C[C@@H](C(=O)N1CCN(C(c2ccc(F)cc2)c2ccc(F)cc2)CC1)N(C)C1CCOCC1 [Example 41, (S)-1-{4-[Bis-(4-fluoro-phenyl)-methyl]-piperazin-1-yl}-4-methyl-2-[methyl-(tetrahydro-pyran-4-yl)-amino]-pentan-1-one] | 6.11 | 56 to 65 |  | 5.64 |  | 
CC(C)C[C@@H](C(=O)N1CCN(C(c2ccc(F)cc2)c2ccc(F)cc2)CC1)N1CCOCC1 [Example 42, (S)-1-{4-[Bis-(4-fluoro-phenyl)-methyl]-piperazin-1-yl}-4-methyl-2-morpholin-4-yl-pentan-1-one] | 5.70 | 55 to 63 |  | 5.47 |  | 
CCC(C)[C@H](NC(=O)N1CCCCCC1)C(=O)N1CCN(C(c2ccc(F)cc2)c2ccc(F)cc2)CC1 (stereo partly drawn) [Example 43, (S)-Azepane-1-carboxylic acid (1-{4-[bis-(4-fluoro-phenyl)-methyl]-piperazine-1-carbonyl}-2-methyl-butyl)-amide] | 6.36 | 64 to 77 |  | 6.33 |  | 
CC(C)C[C@H](NC(=O)N1CCN(c2ccccc2)CC1)C(=O)N1CCN(C(c2ccc(F)cc2)c2ccc(F)cc2)CC1 [Example 44, (S)-4-Phenyl-piperazine-1-carboxylic acid (1-{4-[bis-(4-fluoro-phenyl)-methyl]-piperazine-1-carbonyl}-3-methyl-butyl)-amide] | 6.52 | 83 to 91 |  | 6.39 |  | 
CC(C)C[C@H](NC(=O)N1CCCCCC1)C(=O)N1CCN(C2c3ccccc3-c3ccccc32)CC1 [Example 45, (S)-Azepane-1-carboxylic acid {1-[4-(9H-fluoren-9-yl)-piperazine-1-carbonyl]-3-methyl-butyl}-amide] | 6.03 | 63 to 73 |  | 5.82 |  | 
CC(C)C[C@H](NC(=O)N1CCCCCC1)C(=O)N1CCN(C(c2ccccc2)c2ccccc2)CC1 [Example 48, (S)-Azepane-1-carboxylic acid [1-(4-benzhydryl-piperazine-1-carbonyl)-3-methyl-butyl]-amide] | 5.77 | 66 to 74 |  | 5.92 |  | 
CC(C)C[C@@H](C(=O)N1CCN(C(c2ccc(F)cc2)c2ccc(F)cc2)CC1)N(Cc1ccc(OC(C)(C)C)cc1)Cc1ccc(OC(C)(C)C)cc1 [Example 57, (S)-2-[Bis-(4-tert-butoxy-benzyl)-amino]-1-{4-[bis-(4-fluoro-phenyl)-methyl]-piperazin-1-yl}-4-methyl-pentan-1-one] | < 5.52 | 62 to 67 |  |  |  | 7

The next lines start with the values.

pIC50 [1] | melting point [°C] | pIC50 ([2]; 5 μM nitrendipine present, read-out: IMR32 IC50) | pIC50 [2, 3] | inhibition at 1 µM [2] [%] | inhibition at 10 µM [2] [%] | SMILES
6.02 | 59 to 66 |  | 6.26 |  |  | CC(C)C[C@H](NC(=O)OC(C)(C)C)C(=O)N1CCN(C(c2ccc(F)cc2)c2ccc(F)cc2)CC1 [Example 50, (S)-(1-{4-[Bis-(4-fluoro-phenyl)-methyl]-piperazine-1-carbonyl}-3-methyl-butyl)-carbamic acid tert-butyl ester]
6.15 | 54 to 74 |  | 6.60 |  |  | CC(C)(C)OC(=O)N[C@@H](Cc1ccccc1)C(=O)N1CCN(C(c2ccc(F)cc2)c2ccc(F)cc2)CC1 [Example 51, (S)-(1-Benzyl-2-{4-[bis-(4-fluoro-phenyl)-methyl]-piperazin-1-yl}-2-oxo-ethyl)-carbamic acid tert-butyl ester]
6.38 | 61 to 68 |  |  | 22 | 78 | CC(C)C[C@H](N)C(=O)N1CCN(C(c2ccc(F)cc2)c2ccc(F)cc2)CC1 [Example 53, (S)-2-Amino-1-{4-[bis-(4-fluoro-phenyl)-methyl]-piperazin-1-yl}-4-methyl-pentan-1-one]
5.89 | 45 to 58 |  |  | 25 | 99 | CC(C)N[C@@H](Cc1ccccc1)C(=O)N1CCN(C(c2ccc(F)cc2)c2ccc(F)cc2)CC1 [Example 54, (S)-1-{4-[Bis-(4-fluoro-phenyl)-methyl]-piperazin-1-yl}-2-isopropylamino-3-phenyl-propan-1-one]
6.03 | 172 to 186 |  |  |  | 104 | CC(C)CCN[C@@H](Cc1ccccc1)C(=O)N1CCN(C(c2ccc(F)cc2)c2ccc(F)cc2)CC1.Cl [Example 55, (S)-1-{4-[Bis-(4-fluoro-phenyl)-methyl]-piperazin-1-yl}-2-(3-methyl-butylamino)-3-phenyl-propan-1-one dihydrochloride]
< 5.52 | 139 to 181 |  |  | 16 | 37 | CC(C)CCN(CCC(C)C)[C@@H](Cc1ccccc1)C(=O)N1CCN(C(c2ccc(F)cc2)c2ccc(F)cc2)CC1.Cl [Example 56, (S)-1-{4-[Bis-(4-fluoro-phenyl)-methyl]-piperazin-1-yl}-2-[bis-(3-methyl-butyl)-amino]-3-phenyl-propan-1-one dihydrochloride]
< 5.52 | 78 to 86 |  |  | -5 | 2 | CC(C)C[C@@H](C(=O)N1CCN(C(c2ccc(F)cc2)c2ccc(F)cc2)CC1)N(Cc1ccc(C(C)(C)C)cc1)Cc1ccc(C(C)(C)C)cc1 [Example 59, (S)-2-[Bis-(4-tert-butyl-benzyl)-amino]-1-{-4-[bis-(4-fluoro-phenyl)-methyl]-piperazin-1-yl}-4-methyl-pentan-1-one]
6.66 | 58 to 62 |  |  | 26 | 95 | COc1cc(CN[C@@H](CC(C)C)C(=O)N2CCN(C(c3ccc(F)cc3)c3ccc(F)cc3)CC2)cc(OC)c1OC [Example 60, (S)-1-{4-[Bis-(4-fluoro-phenyl)-methyl]-piperazin-1-yl}-4-methyl-2-(3,4,5-trimethoxy-benzylamino)-pentan-1-one]
5.77 | 60 to 64 |  |  | 42 | 102 | O=C([C@H](Cc1ccccc1)NC1CCCCC1)N1CCN(C(c2ccc(F)cc2)c2ccc(F)cc2)CC1 [Example 61, (S)-1-{4-[Bis-(4-fluoro-phenyl)-methyl]-piperazin-1-yl}-2-cyclohexylamino-3-phenyl-propan-1-one]
